Test results as given in patent US5912153A, “(1,3) β-glucan synthase genes and inducible inhibition of fungal growth using the antisense constructs derived therefrom” (priority 1995, dated 1999).

Target: Neurospora crassa wild type (1,3)β-glucan synthase (crude extract) (Neurospora crassa, UniProt Q7S0A7)
Experiment: (1,3)β-glucan synthase assay with quinate added to wild type crude extract
Assay type: biochemical
Settings: concentrations as high as 4.0% of quinate added to the assay, data not shown
Description: To fresh hyphal pellets was added 20-mls of extraction buffer (25 mM HEPES (pH7.4); 10 mM NaH2 PO4; 600 mM glycerol; 10 mM NaF; 5 mM EDTA and 10 μM GTPy-S). At 4° C., hyphae were disrupted (5×30 second pulses with 2 minute coolings between each pulse) using a Bead Beater (Biospec Products, Bartlesville, Okla.) with 0.5 mm zirconium-silica beads. Lysates were centrifuged at 1000×g for 10 min at […], and used for the enzyme assays as will subsequently be described. Protein concentrations were determined by the method of Bradford using the Bio-Rad protein reagent (BioRad Labs, Hercules, Calif.). The yield was anywhere from 0.9-2.4 mg/ml crude extract depending on the transformant.
(1,3)β-Glucan synthase was assayed using modifications of a procedure previously described. To this end, in vitro reactions contained 50 μg α-amylase (type IIA; Sigma), 1 mM UDP-^14 C-glucose (~50,000 cpm/assay), and 20 μl crude extract in a final volume of 26 μl. Reactions were carried out in V-bottom 96-well microtiter plates (Dynatec Laboratories, Chantilly, Va.) and incubated at 22° C. for 0, 15, 30, 45, and 60 minutes. […]
Wrapped Inotech glass fiber filters were placed for 4-18 hours on a Molecular Dynamics Phosphor Screen. The amount of radioactivity on the filter was determined using a Molecular Dynamics Phosphor Imager Model Sl. […]

Neurospora crassa wild type (1,3)β-glucan synthase (crude extract), sequence (Q7S0A7 1-1955): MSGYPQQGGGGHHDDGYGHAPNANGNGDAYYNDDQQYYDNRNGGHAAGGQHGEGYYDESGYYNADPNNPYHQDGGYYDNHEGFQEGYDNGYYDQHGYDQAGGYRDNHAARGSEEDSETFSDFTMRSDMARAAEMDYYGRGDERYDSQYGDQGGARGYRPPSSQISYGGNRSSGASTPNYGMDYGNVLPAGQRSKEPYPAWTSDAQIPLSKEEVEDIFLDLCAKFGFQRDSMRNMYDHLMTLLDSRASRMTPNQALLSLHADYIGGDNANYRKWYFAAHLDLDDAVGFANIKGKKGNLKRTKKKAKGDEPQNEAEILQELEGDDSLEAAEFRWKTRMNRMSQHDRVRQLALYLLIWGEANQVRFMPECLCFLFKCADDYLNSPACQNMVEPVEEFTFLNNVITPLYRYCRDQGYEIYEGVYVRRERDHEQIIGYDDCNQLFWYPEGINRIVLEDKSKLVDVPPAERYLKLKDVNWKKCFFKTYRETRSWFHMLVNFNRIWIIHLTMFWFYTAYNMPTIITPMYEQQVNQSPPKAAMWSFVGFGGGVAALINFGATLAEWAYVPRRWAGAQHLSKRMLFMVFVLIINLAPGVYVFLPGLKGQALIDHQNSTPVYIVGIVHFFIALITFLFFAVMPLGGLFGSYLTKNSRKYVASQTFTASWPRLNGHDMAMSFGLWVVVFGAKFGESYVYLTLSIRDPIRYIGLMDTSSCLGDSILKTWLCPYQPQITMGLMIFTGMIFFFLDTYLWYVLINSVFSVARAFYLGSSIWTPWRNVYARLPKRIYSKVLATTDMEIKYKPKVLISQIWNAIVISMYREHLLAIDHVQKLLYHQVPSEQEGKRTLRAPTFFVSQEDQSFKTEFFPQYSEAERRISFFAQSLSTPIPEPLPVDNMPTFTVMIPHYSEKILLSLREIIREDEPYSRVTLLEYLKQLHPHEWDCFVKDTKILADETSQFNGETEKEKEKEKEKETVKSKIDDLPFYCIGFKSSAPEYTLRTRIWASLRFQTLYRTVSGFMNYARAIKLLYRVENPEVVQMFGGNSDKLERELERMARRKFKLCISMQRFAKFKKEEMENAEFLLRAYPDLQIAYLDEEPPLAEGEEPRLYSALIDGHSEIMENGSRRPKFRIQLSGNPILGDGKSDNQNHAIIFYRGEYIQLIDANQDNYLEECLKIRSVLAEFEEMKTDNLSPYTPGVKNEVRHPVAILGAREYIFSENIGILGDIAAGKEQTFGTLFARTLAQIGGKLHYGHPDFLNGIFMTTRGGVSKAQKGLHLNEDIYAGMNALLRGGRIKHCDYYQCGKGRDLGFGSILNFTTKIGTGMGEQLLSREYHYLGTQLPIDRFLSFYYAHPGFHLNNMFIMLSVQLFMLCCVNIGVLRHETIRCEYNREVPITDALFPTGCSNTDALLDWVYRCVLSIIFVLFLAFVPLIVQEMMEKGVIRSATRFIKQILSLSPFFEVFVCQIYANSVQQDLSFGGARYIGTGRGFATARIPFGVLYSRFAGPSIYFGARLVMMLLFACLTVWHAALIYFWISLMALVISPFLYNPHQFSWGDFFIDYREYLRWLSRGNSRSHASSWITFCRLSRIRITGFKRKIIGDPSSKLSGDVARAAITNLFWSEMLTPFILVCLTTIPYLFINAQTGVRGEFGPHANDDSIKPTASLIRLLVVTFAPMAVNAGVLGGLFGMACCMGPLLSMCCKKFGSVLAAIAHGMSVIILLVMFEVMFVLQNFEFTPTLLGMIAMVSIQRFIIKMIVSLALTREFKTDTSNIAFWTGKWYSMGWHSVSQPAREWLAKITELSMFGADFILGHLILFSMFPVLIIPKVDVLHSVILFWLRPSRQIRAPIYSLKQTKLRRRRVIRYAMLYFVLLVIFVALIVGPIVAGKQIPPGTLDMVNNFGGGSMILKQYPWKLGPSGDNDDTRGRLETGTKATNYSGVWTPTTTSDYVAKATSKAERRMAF
Neurospora crassa wild type (1,3)β-glucan synthase (crude extract), sequence (Q7RXU8 1-195 partner): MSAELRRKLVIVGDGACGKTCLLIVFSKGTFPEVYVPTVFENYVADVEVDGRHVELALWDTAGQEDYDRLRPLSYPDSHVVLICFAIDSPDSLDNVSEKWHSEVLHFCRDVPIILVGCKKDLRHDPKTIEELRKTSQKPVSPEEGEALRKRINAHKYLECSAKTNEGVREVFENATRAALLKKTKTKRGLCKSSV

inhibitory effect of quinate on (1,3)β-glucan synthase activity: did not show an inhibitory effect
SMILES: O=C(O)C1(O)CC(O)C(O)C(O)C1 (single isomer, unassigned) [quinate, quinic acid]
